Laboratory results reported in the NIST ThermoML archive (doi:10.1021/je0504358).

Details: Liquid, Twin ebulliometer

CC1CCCCC1=O (stereo unspecified) [2-methylcyclohexanone]
Details | vapor or sublimation pressure [kPa]
338.76 K | 3.333
342.2 K | 3.912
348.85 K | 5.267
350.96 K | 5.763
353.34 K | 6.401
355.93 K | 7.129
358.53 K | 7.941
360.73 K | 8.678
363.09 K | 9.543
366.66 K | 10.98
369.65 K | 12.3
372.7 K | 13.79
376.36 K | 15.79
381.72 K | 19.12
384.91 K | 21.37
389.42 K | 24.9
394.59 K | 29.53
398.32 K | 33.29
399.98 K | 35.05
408.17 K | 45.03
411.64 K | 49.98
414 K | 53.52
418.28 K | 60.46
436.94 K | 99.71

CCCCCC=O [hexanal]
Details | vapor or sublimation pressure [kPa]
322.27 K | 5.184
325.43 K | 6.001
327.84 K | 6.711
330.22 K | 7.51
333.56 K | 8.713
338.89 K | 10.99
342.12 K | 12.59
347.22 K | 15.55
353.44 K | 19.8
360.11 K | 25.45
366.28 K | 31.91
371.95 K | 38.88
377.98 K | 47.56
402.17 K | 99.72

O=C1C=CCCC1 [2-cyclohexen-1-one]
Details | vapor or sublimation pressure [kPa]
350.4 K | 4.147
353.66 K | 4.786
357.56 K | 5.662
361.48 K | 6.709
366.16 K | 8.095
370.32 K | 9.581
374.97 K | 11.46
379 K | 13.31
380.5 K | 14.06
386.63 K | 17.53
388.4 K | 18.68
391.77 K | 20.95
397.16 K | 25.2
404.53 K | 32.03
407.95 K | 35.56
410.86 K | 39.01
424.23 K | 57.64
445 K | 100.4
